According to ChEMBL document CHEMBL1201862, “PubChem BioAssay data set” (2004):
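All cell lines were grown in 96-well plates and treated with compound for 48 hours. At the GI50, growth is halved.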 Activity calls are given as the source filed them. No stated cut-off is given here; in the data, active = GI50 up to about 1.1 µM and inactive = higher.

Tests used:
Experiment in all cases: NCI-60 cell line screen, 48 h
[1] = test system: M14
[2] = test system: COLO 205
[3] = test system: OVCAR-5
[4] = test system: UACC-257
[5] = test system: HCC 2998
[6] = test system: MOLT-4
[7] = test system: U-251
[8] = test system: DU-145
[9] = test system: 786-0
[10] = test system: SF-295
[11] = test system: SNB-75
[12] = test system: T47D
[13] = test system: NCI-H522
[14] = test system: HOP-62
[15] = test system: SF-268
[16] = test system: UO-31
[17] = test system: HCT-116
[18] = test system: HL-60
[19] = test system: MCF7
[20] = test system: SK-MEL-2
[21] = test system: NCI-H23
[22] = test system: BT-549
[23] = test system: LOX IMVI
[24] = test system: NCI/ADR-RES
[25] = test system: RXF 393
[26] = test system: NCI-H226
[27] = test system: SW-620
[28] = test system: A549
[29] = test system: HT-29
[30] = test system: OVCAR-4
[31] = test system: K562
[32] = test system: MDA-MB-231
[33] = test system: CAKI-1
[34] = test system: OVCAR-3
[35] = test system: SNB-19
[36] = test system: OVCAR-8
[37] = test system: Hs-578T
[38] = test system: SF-539
[39] = test system: RPMI-8226
[40] = test system: EKVX
[41] = test system: Malme-3M
[42] = test system: SR
[43] = test system: MDA-MB-435
[44] = test system: SK-OV-3
[45] = test system: HCT-15
[46] = test system: IGROV-1
[47] = test system: A498
[48] = test system: SK-MEL-5
[49] = test system: SN12C
[50] = test system: UACC-62
[51] = test system: MDA-N
[52] = test system: KM12
[53] = test system: CCRF-CEM
[54] = test system: TK-10
[55] = test system: PC-3
[56] = test system: ACHN

Q: With `N#Cc1c(C#N)c(-c2ccccc2)n(Cc2ccccc2)c1N` as the molecule, how does the GI50 [1] read?
A: > 100 µM (inactive)

Q: What about the GI50 [2] of the same molecule?
A: > 100 µM (inactive)

Q: What about the GI50 [3] of the same molecule?
A: > 100 µM (inactive)

Q: What about the GI50 [4] of the same molecule?
A: > 100 µM (inactive)

Q: And the GI50 [5]?
A: > 100 µM (inactive)

Q: And the GI50 [6]?
A: > 100 µM (inactive)

Q: What about the GI50 [7] of the same molecule?
A: 80.5 µM (inactive)

Q: What about the GI50 [8] of the same molecule?
A: > 100 µM (inactive)

Q: And the GI50 [9]?
A: 35 µM (inactive)

Q: And the GI50 [10]?
A: > 100 µM (inactive)

Q: And the GI50 [11]?
A: 14.4 µM (inactive)

Q: What about the GI50 [12] of the same molecule?
A: > 100 µM (inactive)

Q: What about the GI50 [13] of the same molecule?
A: > 100 µM (inactive)

Q: What about the GI50 [14] of the same molecule?
A: 51.1 µM (inactive)

Q: What about the GI50 [15] of the same molecule?
A: 47.2 µM (inactive)

Q: And the GI50 [16]?
A: > 100 µM (inactive)

Q: And the GI50 [17]?
A: > 100 µM (inactive)

Q: And the GI50 [18]?
A: > 100 µM (inactive)

Q: And the GI50 [19]?
A: > 100 µM (inactive)

Q: What about the GI50 [20] of the same molecule?
A: > 100 µM (inactive)

Q: And the GI50 [21]?
A: > 100 µM (inactive)

Q: What about the GI50 [22] of the same molecule?
A: > 100 µM (inactive)

Q: And the GI50 [23]?
A: > 100 µM (inactive)

Q: And the GI50 [24]?
A: > 100 µM (inactive)

Q: And the GI50 [25]?
A: 48.6 µM (inactive)

Q: And the GI50 [26]?
A: > 100 µM (inactive)

Q: What about the GI50 [27] of the same molecule?
A: > 100 µM (inactive)

Q: What about the GI50 [28] of the same molecule?
A: > 100 µM (inactive)

Q: And the GI50 [29]?
A: > 100 µM (inactive)

Q: And the GI50 [30]?
A: > 100 µM (inactive)

Q: What about the GI50 [31] of the same molecule?
A: > 100 µM (inactive)

Q: And the GI50 [32]?
A: 26.9 µM (inactive)

Q: What about the GI50 [33] of the same molecule?
A: > 100 µM (inactive)

Q: And the GI50 [34]?
A: > 100 µM (inactive)

Q: And the GI50 [35]?
A: 29.6 µM (inactive)

Q: What about the GI50 [36] of the same molecule?
A: 28.4 µM (inactive)

Q: And the GI50 [37]?
A: 25.6 µM (inactive)

Q: What about the GI50 [38] of the same molecule?
A: 26 µM (inactive)

Q: What about the GI50 [39] of the same molecule?
A: > 100 µM (inactive)

Q: What about the GI50 [40] of the same molecule?
A: > 100 µM (inactive)

Q: What about the GI50 [41] of the same molecule?
A: > 100 µM (inactive)

Q: What about the GI50 [42] of the same molecule?
A: > 100 µM (inactive)

Q: What about the GI50 [43] of the same molecule?
A: > 100 µM (inactive)

Q: What about the GI50 [44] of the same molecule?
A: > 100 µM (inactive)

Q: What about the GI50 [45] of the same molecule?
A: > 100 µM

Q: What about the GI50 [46] of the same molecule?
A: > 100 µM (inactive)

Q: And the GI50 [47]?
A: > 100 µM (inactive)

Q: What about the GI50 [48] of the same molecule?
A: > 100 µM (inactive)

Q: What about the GI50 [49] of the same molecule?
A: > 100 µM (inactive)

Q: What about the GI50 [50] of the same molecule?
A: > 100 µM (inactive)

Q: What about the GI50 [51] of the same molecule?
A: > 100 µM (inactive)

Q: What about the GI50 [52] of the same molecule?
A: > 100 µM (inactive)

Q: What about the GI50 [53] of the same molecule?
A: > 100 µM (inactive)

Q: What about the GI50 [54] of the same molecule?
A: > 100 µM (inactive)

Q: What about the GI50 [55] of the same molecule?
A: > 100 µM (inactive)

Q: What about the GI50 [56] of the same molecule?
A: > 100 µM (inactive)
